Reference: patent US20210299260A1, “THERAPEUTIC CONJUGATES” (Ariel Scientific Innovations Ltd., priority 2018, published 2021)
One block for each compound: values may come before it.

Experiments:
[1] = literature report; cited from earlier work
physchem = type: physicochemical; settings: for half-life: buffer
Protocol: These studies were performed for Compound 1 at two pH values: 4.6 and 7.4, and compared to triazene drug dacarbazine (DTIC). These chosen pHs mimic relatively acidic cancer intracellular (pH 4.6) and slightly basic physiological (pH 7.4) environments.
(§1) The results for DTIC are consistent with the reported stability of the control drug in various hydrolytic media. In addition, Compound 1 decomposition has been studied by hepatic cytochrome P450 induction in hepatocellular carcinoma HepG2 cells using LC-MS (FIG. 1D). […] The decomposition of Compound 1 was examined in cell medium and in cell lysate, while the identification of metabolites was carried out solely in cell lysate.

[2] = pH 7.4; cited from earlier work
A172 GBM cells = assay: Intracranial A172 GBM xenograft model in nude mice (weight, survival, histopathology); settings: for brain structure in brain sections / tumor area, tumor distribution and invasion in brain sections: H&E stained brain sections at termination; for brain structure in brain sections: FIG. 4; for brain structure in brain sections / tumor area, tumor distribution and invasion in brain sections / body weight gain of tumor-bearing mice / survival of tumor-bearing mice: Compound 1 50 mg/kg, TMZ 25 mg/kg; for body weight gain of tumor-bearing mice / survival of tumor-bearing mice: i.p. once daily, five injections; for body weight gain of tumor-bearing mice: FIG. 2; for tolerability to treatment: mice bearing GBM tumors, reflected by body weight and survival; for survival of tumor-bearing mice: FIG. 3A
Protocol: The efficacy of Compound 1 in inhibition of intracranial malignant brain glioblastoma growth and survival in nude mice was evaluated using nude mice that were implanted with 5×10^5 A172 GBM cells in the right striatum, followed by consequent once daily five intraperitoneal injections with the vehicle, TMZ (25 mg/kg) and Compound 1 (50 mg/kg), on the tenth day after glioblastoma implantation.
Mice brains were collected at termination day determined by appearance of severe clinical signs within tumor progression and invasion in brain tissue. Brains were fixed with 4% PFA, paraffin embedded and serially cut in to 5 μm. Three slides within a distance of 100 μm apart were sampled for each brain, and stained with hematoxyline-eosin dyes (H&E). Tumor area, distribution and invasion in to brain tissue were observed under light microscopy.

[3] = tested on: hepatocellular carcinoma HepG2 cells; assay: Decomposition and metabolite detection in HepG2 cells (medium versus cell lysate), LC-MS; type: in vitro ADME
Protocol: as §1
It is assumed that this metabolite is the result of oxidation of Compound 1 by hepatic cytochrome P450 and subsequent degradation of two dimethyl triazene tethers in agreement with the mechanism of action of dacarbazine. The observed stability of Compound 1 in PBS potentiates its pharmacological utility during circulation in blood. Therefore, it is concluded that the stability of Compound 1 is sufficient for proceeding to animal models.

[4] = listed as DKP-dimethyltriazene conjugate

Compound: NCCCC(=O)O [γ-aminobutyric acid]
BBB permeability [1]: did not show permeability

Compound: NCC(=O)CCC(=O)O [5-aminolevulinic acid]
BBB permeability [1]: did not show permeability

half-life (physchem; pH 4.6): 306 min
half-life (physchem; pH 7.4): 612 min
Compound: CN(C)/N=N/c1[nH]cnc1C(N)=O [DTIC, dacarbazine, reference compound]

Compound: Cn1nnc2c(C(N)=O)ncn2c1=O [TMZ, Temozolomide, reference compound]
plasma half-life [2]: 1.8 h
brain structure in brain sections (A172 GBM cells): both lateral and third ventricles were significantly enlarged
tumor area, tumor distribution and invasion in brain sections (A172 GBM cells): noticeable reduction
body weight gain of tumor-bearing mice (A172 GBM cells): Significant body weight gain reduction
tolerability to treatment (A172 GBM cells): relatively toxic and poorly tolerable

Compound: N-Me-Phe-(N-Me-Phe)3-CONH2
BBB permeability [1]: High BBB-permeability

Compound: O=C(O)C1CCCNC1 (centres unmarked) [nipecotic acid]
BBB permeability [1]: did not show permeability

Compound: CN(C)/N=N/c1ccc(C[C@H]2C(=O)N(C)[C@@H](Cc3ccc(/N=N/N(C)C)cc3)C(=O)N2C)cc1 [Compound 1, (3S,6S)-3,6-bis(4-((E)-3,3-dimethyltriaz-1-en-1-yl)benzyl)-1,4-dimethylpiperazine-2,5-dione]
brain structure in brain sections (A172 GBM cells): normal brain structure
tumor area, tumor distribution and invasion in brain sections (A172 GBM cells): noticeable reduction
body weight gain of tumor-bearing mice (A172 GBM cells): normal weight gain
body weight gain of tumor-bearing mice (A172 GBM cells; [4]): no weight loss
survival of tumor-bearing mice (A172 GBM cells): prominent effect on tumor bearing mice survival rate
survival of tumor-bearing mice (A172 GBM cells; [4]): superior activity compared to TMZ in overall survival
tolerability to treatment (A172 GBM cells): good tolerability
decomposition in cell medium ([3]; HepG2, incubation in cell medium, FIG. 1C): continuous decomposition
accumulation/decomposition in cell lysate ([3]; HepG2 cell lysate, FIG. 1C): gradually accumulated within an hour of incubation and decomposed subsequently
main metabolite detected in cell lysate ([3]; HepG2 cell lysate, LC-MS, FIG. 1D): containing monomethyl triazene (MTIC like) and aniline (AIC like) groups
half-life (physchem; pH 4.6): 288 min
stability in PBS buffer (physchem; pH 7.4): sufficient stability
